Data reported in patent US9776972B2, “Pyrazole derivatives as arginine methyltransferase inhibitors and uses thereof” (priority 2013, dated 2017).
pIC50: −log10 of the molar value. Where two headings read alike, the source gives them in different places.

How the values were obtained:
human PRMT1 = molecular target: T1, human PRMT1 (Homo sapiens, UniProt Q99873); test: PRMT1 Biochemical Assay (3H-SAM Flashplate, peptide substrate); conditions: single experiment or average of multiple experiments
T1 construct: GST-tagged PRMT1; made in house; host or cells: High Five insect cells (baculovirus)
T1 sequence (Q99873 with tags, fused parts or gaps): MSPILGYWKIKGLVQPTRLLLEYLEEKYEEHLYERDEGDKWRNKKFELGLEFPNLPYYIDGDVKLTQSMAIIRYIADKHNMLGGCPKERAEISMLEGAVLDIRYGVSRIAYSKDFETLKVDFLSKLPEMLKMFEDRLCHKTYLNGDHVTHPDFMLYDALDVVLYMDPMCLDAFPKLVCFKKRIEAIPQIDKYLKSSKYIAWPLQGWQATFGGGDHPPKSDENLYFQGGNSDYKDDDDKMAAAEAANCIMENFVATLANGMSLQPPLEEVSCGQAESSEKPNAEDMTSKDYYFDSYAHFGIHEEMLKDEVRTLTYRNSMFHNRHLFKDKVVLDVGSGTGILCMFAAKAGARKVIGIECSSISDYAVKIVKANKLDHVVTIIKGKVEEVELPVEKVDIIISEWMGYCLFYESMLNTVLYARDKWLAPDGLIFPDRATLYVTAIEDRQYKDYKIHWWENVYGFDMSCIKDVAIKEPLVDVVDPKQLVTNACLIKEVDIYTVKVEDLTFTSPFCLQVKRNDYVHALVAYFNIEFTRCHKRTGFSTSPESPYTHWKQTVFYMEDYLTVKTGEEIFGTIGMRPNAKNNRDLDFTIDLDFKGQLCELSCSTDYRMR
Procedure, shortened: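 GST-tagged PRMT1 from baculovirus-infected cells, preincubated with compounds 30 min at room temperature in 20 mM Bicine pH 7.6, 1 mM TCEP, 0.005% BSG, 0.002% Tween 20. Reaction started with ³H-SAM plus biotinylated peptide, stopped with 300 µM cold SAM.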

[1] = system: mono-methyl arginine in RKO cells; test: RKO Methylation Assay, In Cell Western (ICW) for mono-methyl arginine and DNA content; format: cell-based; conditions: Homo sapiens, RKO, 72 h
Procedure, shortened: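 After fixation, mono-methyl arginine and DNA (DRAQ5) were measured by infrared In-Cell Western imaging at 700/800 nm in RKO cells exposed to compounds for 72 hours. Percent activation used DMSO wells as minimum and 20 μM reference compound as maximum; EC30 curves fitted on triplicate wells.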

[2] = RKO cells, 72 hours, mono-methyl arginine, percent activation, single experiment or average of multiple experiments, read-out: EC30 (In Cell Western data, Numerical)

Row | pIC50 (human PRMT1) | SMILES | EC30 [1, 2] | EC30 ([1]; read-out: EC30 (In Cell Western data, Numerical, μM))
1 | 7.14 | Cc1ccc(F)cc1-c1n[nH]cc1CN(C)CCN [Compound 159] | 8.56 µM | 
2 | 7.73 | CNCCN(C)Cc1cn(Cc2ccccc2)nc1-c1ccc(OC(C)C)cc1 [Compound 217] | 2.15 µM | 
3 | 7.09 | CNCCN(C)Cc1cn(C2CCOC2)nc1-c1ccc(OC(C)C)cc1 (stereo not drawn) [Compound 215] | 7.47 µM | 
4 | 6.32 | CCC(=O)N1CCN(c2ccc(-c3n[nH]cc3CN(C)CCN)cc2)CC1 [Compound 189] | > 20 µM | 
5 | 7.20 | CC(C)CN1C(=O)COc2cc(-c3n[nH]cc3CN(C)CCN)ccc21 [Compound 193] | 9.72 µM | 
6 | 7.33 | COc1ccc(-c2n[nH]cc2CN(C)CCN)c(Cl)c1 [Compound 146] | 7.16 µM | 
7 | 7.70 | CN(CCN)Cc1n[nH]cc1-c1ccc(C2CCOCC2)cc1 [Compound 145] | 1.95 µM | 
8 | 7.22 | COc1ccc(-c2n[nH]cc2CN(C)CCN)c(C)c1 [Compound 155] | 10.6 µM | 

Row | SMILES | pIC50 (human PRMT1) | EC30 [1, 2] | EC30 ([1]; read-out: EC30 (In Cell Western data, Numerical, μM))
9 | CNCCN(C)Cc1cn[nH]c1-c1ccc(C#N)cc1 [Compound 17] | 7.86 |  | > 20 µM
